Data taken from ChEMBL document CHEMBL6109152, “Harnessing the SPOP E3 Ubiquitin Ligase via a Bridged Proteolysis Targeting Chimera (PROTAC) Strategy for Targeted Protein Degradation” (J Med Chem, 2025).
The source made the active and inactive calls. The calls are words filed in the database; no cut-off is given here.

Tests used:
HT-29 [1] = assay: Antiproliferative activity against human HT-29 cells assessed as cell growth inhibition incubated for 3 days by WST-8 reagent based assay; assay type: functional
[2] = molecular target: T1, Speckle-type POZ protein-Bromodomain-containing protein 4 (Homo sapiens, UniProt O60885+O43791); assay: PROTAC activity at SPOP/BRD4-S in human HT-29 cells assessed as induction of BRD4 short isoform degradation at 5 uM preincubated with JQ1 for 2 hrs followed by compound addition and measured after 24 hrs by Western blot analysis; assay type: cell-based
T1 sequence (O43791 whole entry, looked up, other chains not shown, canonical isoform): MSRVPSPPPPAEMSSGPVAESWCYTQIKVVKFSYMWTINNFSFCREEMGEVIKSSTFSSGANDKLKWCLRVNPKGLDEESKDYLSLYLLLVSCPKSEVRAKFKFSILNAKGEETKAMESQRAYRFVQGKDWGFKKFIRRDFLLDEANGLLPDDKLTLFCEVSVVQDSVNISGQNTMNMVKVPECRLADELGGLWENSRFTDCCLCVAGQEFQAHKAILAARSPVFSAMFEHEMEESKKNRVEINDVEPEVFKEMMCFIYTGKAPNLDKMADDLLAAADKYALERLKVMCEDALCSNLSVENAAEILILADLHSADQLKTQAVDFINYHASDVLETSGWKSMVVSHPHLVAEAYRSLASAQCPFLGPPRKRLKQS

[3] = molecular target: T1, Speckle-type POZ protein-Bromodomain-containing protein 4; assay: PROTAC activity at SPOP/BRD4-S in human HT-29 cells assessed as induction of BRD4 short isoform degradation by measuring fold change at 1.25 uM incubated for 24 hrs by Western blotting analysis (reference value: 1.00); assay type: cell-based
[4] = molecular target: T2, Bromodomain-containing protein 4 (Homo sapiens, UniProt O60885); assay: Inhibition of BRD4 in human HT-29 cells assessed as decrease in c-MYC protein level by measuring fold change at 10 uM incubated for 24 hrs by Western blot analysis (reference value: 1.00); assay type: cell-based
[5] = molecular target: T2, Bromodomain-containing protein 4; assay: Inhibition of BRD4 in human HT-29 cells assessed as decrease in c-MYC protein level at 5 uM measured after 16 hrs by Western blot analysis relative to control; assay type: cell-based
[6] = molecular target: T1, Speckle-type POZ protein-Bromodomain-containing protein 4; assay: PROTAC activity at SPOP/BRD4-S in human HT-29 cells assessed as induction of BRD4 short isoform degradation by measuring fold change at 5 uM incubated for 24 hrs by Western blotting analysis (reference value: 1.00); assay type: cell-based
[7] = molecular target: T1, Speckle-type POZ protein-Bromodomain-containing protein 4; assay: PROTAC activity at SPOP/BRD4-L in human MDA-MB-231 cells assessed as induction of BRD4 long isoform degradation at 0.1 to 5 uM incubated for 24 hrs by Western blotting analysis; assay type: cell-based; conditions: dose 0.1-5 µM
[8] = molecular target: T1, Speckle-type POZ protein-Bromodomain-containing protein 4; assay: PROTAC activity at SPOP/BRD4-S in human HT-29 cells assessed as induction of BRD4 short isoform degradation at 5 uM preincubated with MS1262 for 2 hrs followed by compound addition and measured after 24 hrs by Western blot analysis; assay type: cell-based
[9] = molecular target: T1, Speckle-type POZ protein-Bromodomain-containing protein 4; assay: PROTAC activity at SPOP/BRD4-L in human HT-29 cells assessed as induction of BRD4 long isoform degradation at 0.5 to 5 uM incubated for 24 hrs by Western blotting analysis; assay type: cell-based; conditions: dose 0.5-5 µM
[10] = molecular target: T1, Speckle-type POZ protein-Bromodomain-containing protein 4; assay: PROTAC activity at SPOP/BRD4-S in human HT-29 cells assessed as induction of BRD4 short isoform degradation by measuring fold change at 0.156 uM incubated for 24 hrs by Western blotting analysis (reference value: 1.00); assay type: cell-based
HT-29 [11] = assay: Effect on BRD3 mRNA level in human HT-29 cells at 1 to 10 uM incubated for 24 hrs by RT-qPCR analysis; assay type: functional, cell-based; conditions: dose 1-10 µM
[12] = molecular target: T3, Speckle-type POZ protein-Bromodomain-containing protein 3 (Homo sapiens) (UniProt Q15059+O43791); assay: PROTAC activity at SPOP/BRD3 in human HT-29 cells assessed as induction of BRD3 degradation by measuring fold change at 0.625 uM incubated for 24 hrs by Western blot analysis (reference value: 1.00); assay type: cell-based
T3 sequence (O43791 whole entry, looked up): as the sequence (O43791 whole entry, looked up, other chains not shown, canonical isoform) above
T3 sequence (Q15059 whole entry, looked up): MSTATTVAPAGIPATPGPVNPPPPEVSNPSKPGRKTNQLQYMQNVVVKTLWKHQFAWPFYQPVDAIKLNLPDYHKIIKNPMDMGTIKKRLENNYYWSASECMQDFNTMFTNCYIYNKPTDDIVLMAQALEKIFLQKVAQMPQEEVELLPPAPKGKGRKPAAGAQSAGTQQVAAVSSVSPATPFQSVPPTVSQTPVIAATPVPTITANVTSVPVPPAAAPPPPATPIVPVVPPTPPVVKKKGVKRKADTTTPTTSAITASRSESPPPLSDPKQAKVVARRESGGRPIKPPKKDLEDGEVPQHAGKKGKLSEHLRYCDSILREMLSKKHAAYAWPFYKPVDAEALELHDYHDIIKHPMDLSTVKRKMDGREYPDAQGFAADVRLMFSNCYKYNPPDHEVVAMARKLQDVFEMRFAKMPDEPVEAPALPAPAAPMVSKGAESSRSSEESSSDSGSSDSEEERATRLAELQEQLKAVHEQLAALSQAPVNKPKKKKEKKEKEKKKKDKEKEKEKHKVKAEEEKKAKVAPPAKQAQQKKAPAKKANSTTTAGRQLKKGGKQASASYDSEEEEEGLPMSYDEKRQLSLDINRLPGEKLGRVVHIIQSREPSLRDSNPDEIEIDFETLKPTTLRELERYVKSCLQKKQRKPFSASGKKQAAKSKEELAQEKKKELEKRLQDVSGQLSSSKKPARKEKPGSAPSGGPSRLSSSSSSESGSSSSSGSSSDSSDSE

[13] = molecular target: T4, Speckle-type POZ protein-Bromodomain-containing protein 2 (Homo sapiens) (UniProt P25440+O43791); assay: PROTAC activity at SPOP/BRD2 in human HT-29 cells assessed as induction of BRD2 degradation by measuring fold change at 0.313 uM incubated for 24 hrs by Western blot analysis (reference value: 1.00); assay type: cell-based
T4 sequence (O43791 whole entry, looked up, canonical isoform): as the sequence (O43791 whole entry, looked up, other chains not shown, canonical isoform) above
T4 sequence (P25440 whole entry, looked up, canonical isoform): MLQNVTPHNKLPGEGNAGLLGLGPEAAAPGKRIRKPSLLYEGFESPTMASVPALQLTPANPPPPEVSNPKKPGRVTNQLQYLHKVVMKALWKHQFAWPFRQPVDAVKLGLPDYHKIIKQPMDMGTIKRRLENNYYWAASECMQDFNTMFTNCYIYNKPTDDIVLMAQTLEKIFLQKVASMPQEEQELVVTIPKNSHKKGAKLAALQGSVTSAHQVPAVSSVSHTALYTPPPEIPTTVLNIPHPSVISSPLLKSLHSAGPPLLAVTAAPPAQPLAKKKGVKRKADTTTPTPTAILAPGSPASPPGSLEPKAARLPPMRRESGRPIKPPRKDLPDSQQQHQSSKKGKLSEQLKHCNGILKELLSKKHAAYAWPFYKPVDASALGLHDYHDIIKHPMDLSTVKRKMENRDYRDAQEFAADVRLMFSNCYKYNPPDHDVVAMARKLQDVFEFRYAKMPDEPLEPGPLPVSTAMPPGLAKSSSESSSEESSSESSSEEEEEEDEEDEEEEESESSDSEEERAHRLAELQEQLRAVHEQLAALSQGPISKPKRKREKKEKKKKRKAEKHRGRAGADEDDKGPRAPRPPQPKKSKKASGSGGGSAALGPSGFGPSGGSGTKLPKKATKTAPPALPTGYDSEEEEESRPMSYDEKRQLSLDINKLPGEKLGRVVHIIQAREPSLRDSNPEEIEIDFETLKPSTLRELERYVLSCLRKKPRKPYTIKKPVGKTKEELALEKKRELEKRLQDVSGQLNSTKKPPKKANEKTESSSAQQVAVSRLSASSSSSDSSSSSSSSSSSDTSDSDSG

[14] = molecular target: T1, Speckle-type POZ protein-Bromodomain-containing protein 4; assay: PROTAC activity at SPOP/BRD4-S in human HT-29 cells assessed as induction of BRD4 short isoform degradation by measuring maximal efficacy at 0.156 to 10 uM incubated for 24 hrs by Western blotting analysis relative to control; assay type: cell-based; conditions: dose 0.156-10 µM
[15] = molecular target: T1, Speckle-type POZ protein-Bromodomain-containing protein 4; assay: PROTAC activity at SPOP/BRD4-S in human HT-29 cells assessed as induction of BRD4 short isoform degradation by measuring fold change at 10 uM incubated for 24 hrs by Western blotting analysis (reference value: 1.00); assay type: cell-based
[16] = molecular target: T1, Speckle-type POZ protein-Bromodomain-containing protein 4; assay: PROTAC activity at SPOP/BRD4-S in human HT-29 cells assessed as induction of BRD4 short isoform degradation at 5 uM incubated for 24 hrs by Western blotting analysis relative to control; assay type: cell-based
[17] = molecular target: T1, Speckle-type POZ protein-Bromodomain-containing protein 4; assay: PROTAC activity at SPOP/BRD4-L in human HT-29 cells assessed as induction of BRD4 long isoform degradation by measuring fold change at 5 uM incubated for 24 hrs by Western blotting analysis (reference value: 1.00); assay type: cell-based
[18] = molecular target: T4, Speckle-type POZ protein-Bromodomain-containing protein 2 (Homo sapiens); assay: PROTAC activity at SPOP/BRD2 in human HT-29 cells assessed as induction of BRD2 degradation by measuring fold change at 1.25 uM incubated for 24 hrs by Western blot analysis (reference value: 1.00); assay type: cell-based
HT-29 [19] = assay: Binding affinity to BRD4-L/GLP/SPOP in human HT-29 cells assessed as compound-BRD4-GLP-SPOP quaternary complex formation at 20 to 100 uM incubated for 1 hrs by pulldown based Western blot analysis; assay type: cell-based; conditions: dose 20-100 µM
[20] = molecular target: T3, Speckle-type POZ protein-Bromodomain-containing protein 3 (Homo sapiens); assay: PROTAC activity at SPOP/BRD3 in human HT-29 cells assessed as induction of BRD3 degradation by measuring fold change at 0.313 uM incubated for 24 hrs by Western blot analysis (reference value: 1.00); assay type: cell-based
[21] = molecular target: T4, Speckle-type POZ protein-Bromodomain-containing protein 2 (Homo sapiens); assay: PROTAC activity at SPOP/BRD2 in human HT-29 cells assessed as induction of BRD2 degradation by measuring fold change at 10 uM incubated for 24 hrs by Western blot analysis (reference value: 1.00); assay type: cell-based
[22] = molecular target: T1, Speckle-type POZ protein-Bromodomain-containing protein 4; assay: PROTAC activity at SPOP/BRD4-L in human HT-29 cells assessed as induction of BRD4 long isoform degradation by measuring fold change at 0.313 uM incubated for 24 hrs by Western blotting analysis (reference value: 1.00); assay type: cell-based
[23] = molecular target: T2, Bromodomain-containing protein 4; assay: Inhibition of BRD4 in human HT-29 cells assessed as decrease in c-MYC protein level at 5 uM measured after 2 hrs by Western blot analysis; assay type: cell-based
[24] = molecular target: T4, Speckle-type POZ protein-Bromodomain-containing protein 2 (Homo sapiens); assay: PROTAC activity at SPOP/BRD2 in human HT-29 cells assessed as induction of BRD2 degradation by measuring fold change at 0.156 uM incubated for 24 hrs by Western blot analysis (reference value: 1.00); assay type: cell-based
[25] = molecular target: T3, Speckle-type POZ protein-Bromodomain-containing protein 3 (Homo sapiens); assay: PROTAC activity at SPOP/BRD3 in human HT-29 cells assessed as induction of BRD3 degradation by measuring fold change at 2.5 uM incubated for 24 hrs by Western blot analysis (reference value: 1.00); assay type: cell-based
[26] = molecular target: T1, Speckle-type POZ protein-Bromodomain-containing protein 4; assay: PROTAC activity at SPOP/BRD4-S in human HT-29 cells assessed as induction of BRD4 short isoform degradation at 5 uM measured after 16 to 72 hrs by Western blotting analysis; assay type: cell-based; conditions: time 16-72 hrs
[27] = molecular target: T4, Speckle-type POZ protein-Bromodomain-containing protein 2 (Homo sapiens); assay: PROTAC activity at SPOP/BRD2 in human HT-29 cells assessed as induction of BRD2 degradation by measuring fold change at 5 uM incubated for 24 hrs by Western blot analysis (reference value: 1.00); assay type: cell-based

- GI50 (HT-29 [1]; HT-29, 72 h, time 3 day): 4.5 µM
- Activity [2]: inactive
- fold change (FC) [3]: 0.8
- fold change (FC) [4]: 0.03
- inhibition [5]: 100%
- fold change (FC) [6]: 0.4
- Activity [7]: Active
- Activity [8]: inactive
- Activity [9]: inactive
- fold change (FC) [10]: 1
- fold change (FC) [12]: 0.9
- fold change (FC) [13]: 1.2
- Emax [14]: 63%
- fold change (FC) [15]: 0.3
- Activity [16]: > 50%
- fold change (FC) [17]: 0.7
- fold change (FC) [18]: 1.1
- fold change (FC) [20]: 0.9
- fold change (FC) [21]: 0.7
- fold change (FC) [22]: 1.3
- inhibition [23]: Active
- fold change (FC) [24]: 1.3
- fold change (FC) [25]: 0.7
- Activity [26]: Active
- fold change (FC) [27]: 0.9
Compound: COc1cc2c(NC3CCN(CCCC(=O)NCCCCCCCCCCNC(=O)C[C@@H]4N=C(c5ccc(Cl)cc5)c5c(sc(C)c5C)-n5c(C)nnc54)CC3)cc(N3CCOCC3)nc2cc1OCCCN1CCCC1
- Activity (HT-29 [1]; time 3.0 day): Dose-dependent-effect
- Activity (HT-29 [11]): inactive
- Activity (HT-29 [19]): Active
